Paper PMC9399118, “Pentadecanoylcarnitine is a newly discovered endocannabinoid with pleiotropic activities relevant to supporting physical and mental health” (Scientific Reports, 2022)

Legend:
[1] = molecular target: T1, cannabinoid receptor 2 (CB2) (Homo sapiens, UniProt P34972); assay: cell-based GPCR cAMP modulation assay, […] doses; conditions: read-out: half-maximal effective concentration
T1 construct: gene CNR2; full-length receptor expected in commercial panel cell line (Eurofins/DiscoverX SafetyScan47)
T1 sequence (P34972 whole entry): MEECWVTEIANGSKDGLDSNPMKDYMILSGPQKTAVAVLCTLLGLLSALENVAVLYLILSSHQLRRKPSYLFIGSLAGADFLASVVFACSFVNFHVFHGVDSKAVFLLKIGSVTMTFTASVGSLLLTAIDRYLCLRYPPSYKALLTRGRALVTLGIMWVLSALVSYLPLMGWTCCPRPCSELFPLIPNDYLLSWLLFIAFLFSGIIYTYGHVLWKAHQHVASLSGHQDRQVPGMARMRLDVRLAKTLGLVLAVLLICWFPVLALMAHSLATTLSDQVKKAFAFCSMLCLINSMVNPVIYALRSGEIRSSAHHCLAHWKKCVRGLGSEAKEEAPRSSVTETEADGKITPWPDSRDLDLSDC

[2] = molecular target: T2, histamine H2 receptor (H2R) (Homo sapiens, UniProt P25021); assay: cell-based SafetyScan47 dose-response assay, […] doses; conditions: read-out: half-maximal inhibitory concentration
T2 construct: gene HRH2; full-length receptor expected in commercial panel cell line (Eurofins/DiscoverX SafetyScan47)
T2 sequence (P25021 whole entry): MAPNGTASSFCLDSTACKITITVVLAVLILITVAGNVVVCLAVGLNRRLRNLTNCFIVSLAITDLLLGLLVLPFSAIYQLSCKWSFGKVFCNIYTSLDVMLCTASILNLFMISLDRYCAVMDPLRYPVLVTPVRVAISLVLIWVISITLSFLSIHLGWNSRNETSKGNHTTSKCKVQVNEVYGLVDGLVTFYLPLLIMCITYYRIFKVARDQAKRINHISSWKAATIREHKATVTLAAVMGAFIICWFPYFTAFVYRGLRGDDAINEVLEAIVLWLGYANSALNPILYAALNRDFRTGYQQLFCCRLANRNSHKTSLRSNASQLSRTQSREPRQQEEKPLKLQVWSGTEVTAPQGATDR

[3] = molecular target: T3, serotonin 1B receptor (5-HT1B) (Homo sapiens, UniProt P28222); assay: as above; conditions: read-out: half-maximal effective concentration
T3 construct: gene HTR1B; full-length receptor expected in commercial panel cell line (Eurofins/DiscoverX SafetyScan47)
T3 sequence (P28222 whole entry): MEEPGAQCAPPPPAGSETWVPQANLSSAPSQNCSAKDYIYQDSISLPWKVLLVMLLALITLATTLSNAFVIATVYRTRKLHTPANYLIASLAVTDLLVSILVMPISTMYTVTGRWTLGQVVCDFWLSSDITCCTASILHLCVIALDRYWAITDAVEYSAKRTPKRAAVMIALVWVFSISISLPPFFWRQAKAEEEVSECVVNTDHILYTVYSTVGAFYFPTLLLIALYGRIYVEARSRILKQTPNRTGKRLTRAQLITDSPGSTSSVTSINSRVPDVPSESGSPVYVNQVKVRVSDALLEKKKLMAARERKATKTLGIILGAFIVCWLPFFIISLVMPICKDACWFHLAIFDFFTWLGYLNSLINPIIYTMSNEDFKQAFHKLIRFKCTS

[4] = molecular target: T4, cannabinoid receptor 1 (CB1) (Homo sapiens, UniProt P21554); assay: cell-based GPCR cAMP modulation assay, […] doses; conditions: read-out: half-maximal effective concentration
T4 construct: gene CNR1; full-length receptor expected in commercial panel cell line (Eurofins/DiscoverX SafetyScan47)
T4 sequence (P21554 whole entry): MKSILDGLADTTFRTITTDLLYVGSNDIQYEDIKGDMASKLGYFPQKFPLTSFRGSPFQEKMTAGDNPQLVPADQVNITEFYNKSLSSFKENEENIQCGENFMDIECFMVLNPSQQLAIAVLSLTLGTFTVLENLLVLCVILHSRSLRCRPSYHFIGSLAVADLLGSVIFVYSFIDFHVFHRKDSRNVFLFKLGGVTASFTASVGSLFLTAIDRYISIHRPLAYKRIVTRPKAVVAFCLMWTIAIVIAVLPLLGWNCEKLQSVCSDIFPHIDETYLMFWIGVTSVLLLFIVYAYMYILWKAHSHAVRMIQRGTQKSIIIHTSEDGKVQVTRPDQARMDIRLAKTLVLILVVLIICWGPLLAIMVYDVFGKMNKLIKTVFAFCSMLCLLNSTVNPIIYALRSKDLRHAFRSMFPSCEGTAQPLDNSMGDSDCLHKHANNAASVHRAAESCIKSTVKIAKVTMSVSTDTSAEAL

[5] = molecular target: T5, histamine H1 receptor (H1R) (Homo sapiens, UniProt P35367); assay: cell-based SafetyScan47 dose-response assay, […] doses; conditions: read-out: half-maximal inhibitory concentration
T5 construct: gene HRH1; full-length receptor expected in commercial panel cell line (Eurofins/DiscoverX SafetyScan47)
T5 sequence (P35367 whole entry): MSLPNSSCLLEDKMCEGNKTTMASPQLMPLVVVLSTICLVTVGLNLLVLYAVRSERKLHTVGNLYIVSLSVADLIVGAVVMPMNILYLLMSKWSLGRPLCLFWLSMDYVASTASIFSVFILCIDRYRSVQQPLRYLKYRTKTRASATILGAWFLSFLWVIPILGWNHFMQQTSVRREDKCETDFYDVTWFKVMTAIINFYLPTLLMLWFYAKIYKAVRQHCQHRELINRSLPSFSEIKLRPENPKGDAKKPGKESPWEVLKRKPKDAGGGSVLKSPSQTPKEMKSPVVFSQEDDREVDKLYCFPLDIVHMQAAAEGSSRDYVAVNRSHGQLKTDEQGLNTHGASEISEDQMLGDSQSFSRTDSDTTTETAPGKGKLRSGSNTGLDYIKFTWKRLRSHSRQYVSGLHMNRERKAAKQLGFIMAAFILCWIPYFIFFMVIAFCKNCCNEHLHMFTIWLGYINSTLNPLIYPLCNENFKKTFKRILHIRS

[6] = molecular target: T6, serotonin 1A receptor (5-HT1A) (Homo sapiens, UniProt P08908); assay: as above; conditions: read-out: half-maximal effective concentration
T6 construct: gene HTR1A; full-length receptor expected in commercial panel cell line (Eurofins/DiscoverX SafetyScan47)
T6 sequence (P08908 whole entry): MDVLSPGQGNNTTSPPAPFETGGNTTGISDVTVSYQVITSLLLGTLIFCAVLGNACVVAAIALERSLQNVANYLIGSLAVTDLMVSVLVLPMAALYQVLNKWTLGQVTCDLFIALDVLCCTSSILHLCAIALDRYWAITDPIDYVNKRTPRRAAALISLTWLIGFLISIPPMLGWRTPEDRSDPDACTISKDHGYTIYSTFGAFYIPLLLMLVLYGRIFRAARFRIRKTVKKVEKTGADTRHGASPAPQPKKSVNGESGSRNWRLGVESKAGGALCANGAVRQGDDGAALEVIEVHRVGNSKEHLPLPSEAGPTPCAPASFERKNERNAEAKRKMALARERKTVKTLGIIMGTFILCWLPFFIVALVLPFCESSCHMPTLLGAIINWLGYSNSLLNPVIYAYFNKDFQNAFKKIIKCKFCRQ

## CCCCCCCCCCCCCCC(=O)O[C@H](CC(=O)[O-])C[N+](C)(C)C [pentadecanoylcarnitine]
[1]
  EC50: 3.2 µM
[2]
  IC50: 6.1 µM
[3]
  EC50: 9.3 µM
[4]
  EC50: 3.7 µM
[5]
  IC50: 10.9 µM
[6]
  EC50: 9.6 µM
